Data: the METLIN SMRT retention time set (Domingo-Almenara et al. 2019)

Assay: gradient 5% acetonitrile 3 min, to 50% in 2 min, to 85% in 15 min, held 3 min, 100 µL/min
Conditions: column: Zorbax Extend-C18 2.1 x 50 mm; eluents: water / acetonitrile, 0.1% formic acid
Outline: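 Mixtures of ~100 pure standards were chromatographed on a Zorbax Extend-C18 column (2.1 × 50 mm, 1.8 μm) at 100 μL/min using water and acetonitrile, each with 0.1% formic acid. Detection used a quadrupole time-of-flight mass spectrometer in positive and negative ionization mode, and data collection spanned 3 months. Retention time was obtained from adduct peaks picked computationally and each checked manually.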

RP-LC retention time	SMILES
1070 s	CCCCOc1ccc(C(=O)Nc2ccc(-c3nc(C)no3)cc2)cc1
626 s	CN1CCN(CCCNc2ccc(-c3nc(-c4ccc(F)cc4)no3)cn2)CC1
1250 s	COc1ccc(NC(=O)c2c(O)c3cccnc3n(-c3ccc(F)cc3)c2=O)cc1Cl
714 s	COc1ccc(-c2nc3ncccn3c2Nc2ccc(F)cc2)cc1
872 s	CCc1ccc(NC(=O)Nc2cccn3ncnc23)cc1
979 s	COC(=O)c1ccsc1NC(=O)c1ccc2c(c1)OCCO2
861 s	CCOc1ccccc1C(=O)N1CCC2(CC1)NC(=O)c1cc(C)ccc1N2CC
808 s	O=C(Nc1ccccn1)c1csc2nc(-c3ccc(F)cc3)cn12
743 s	O=C1CCN(C(=O)[C@@H]2CCCN2C(=O)C2CCCCC2)CCCCCCN1
575 s	CCC(=O)NCc1nc2c(n1CC)CN(S(=O)(=O)c1ccc(F)cc1)CC2
778 s	Cn1c(=O)c2nc(S(=O)(=O)CCC(=O)Nc3cc(F)ccc3Cl)n(C)c2n(C)c1=O
913 s	COc1ccc(C2CC(=O)c3cnc4c(c3C2)c(=O)n(C)c(=O)n4C)cc1 (stereo not given)
588 s	Cn1cc(CCN2CCC(C(=O)NCc3ccccc3)CC2)c2cccnc21
950 s	COc1cccc2cc(C(=O)Nc3ccc4c(c3)C(=O)Nc3ccccc3O4)oc12
594 s	COc1ccc(-c2c(C(=O)NCCCN3CCOCC3)nc3ccccn23)cc1
663 s	Cn1c(=O)c2c(nc(N3CCOCC3)n2C)n(C)c1=O
761 s	CN1C(=O)c2cc(C(=O)NCc3ccccc3)nn2CC1(C)C(=O)NC1CCCCC1 (stereo not given)
804 s	CCNC(=O)CN1C(=O)C2CCCCN2c2ccc(S(=O)(=O)N(CC)CC)cc21 (stereo not given)
876 s	CN(CCc1noc(COc2ccccc2F)n1)C(=O)NCCc1ccccc1
720 s	O=C(NCCc1csc(C2CCN(C(=O)C3CCCCC3)CC2)n1)C1CCC1
940 s	O=C(Cn1nc2c3cc(-c4ccccc4)nn3ccn2c1=O)N1CCCc2ccccc21
808 s	CCCOc1ccc(C2NC(=O)NC(C)=C2C(=O)OCC(F)(F)F)cc1OC (stereo not given)
1000 s	O=c1ccc(-c2ccc(Cl)cc2)nn1CCc1nc(-c2cccs2)no1

RP-LC retention time	SMILES
1080 s	O=C(Nc1cc(C(F)(F)F)ccc1Cl)c1ccc(S(=O)(=O)N2CCCCC2)cc1
645 s	Cc1c(Cl)cccc1NC(=O)CSc1ccc(N2CCCC(C(=O)NC3CC3)C2)nn1 (stereo not given)
737 s	Cc1ccc2c(Nc3ccc(C(C)C)cc3)c(C(=O)N3CCCC(C)C3)cnc2n1 (stereo not given)
994 s	Cc1c(-c2noc(-c3ccc(F)cc3)n2)nnn1-c1ccccc1
749 s	CC1(C(=O)NC2CC2)CC(c2ccccc2)=NO1 (stereo not given)
854 s	CCc1cc(=O)n(CC(=O)Nc2cc(C)ccc2OC)c(N2CCOCC2)n1
1020 s	O=C(CN1CCN(C(=O)Nc2ccc(Br)cc2)CC1=O)Nc1ccc(F)cc1F
562 s	Cc1ccc2cc(CN3CCC4(CC3)CC(O)CCO4)c(=O)[nH]c2c1 (stereo not given)
765 s	Cn1c(=O)c(N2CCN(S(=O)(=O)c3ccc4c(c3)CCCC4)CC2)nc2ccncc21
888 s	CCC(=O)N1CCc2cc(-c3ccc(C(=O)NCCc4ccco4)cc3)ccc21
593 s	Cn1cnc(S(=O)(=O)N2CCC3(CC2)N(c2ccccc2)C(=O)CS3=O)c1 (stereo not given)
1030 s	Cc1nn(-c2nc(-c3ccc(Cl)cc3)cs2)c(C)c1CC(=O)N1CCOCC1
862 s	CC(C)Cn1nc2ccc(S(=O)(=O)N3CCC(C)CC3)cn2c1=O
1180 s	COCCn1c(SCc2nc(-c3ccc(Cl)cc3)no2)nc2cc3c(cc2c1=O)OCO3
635 s	CC(C)C(=O)Nc1ccc(CCc2nc3ccc(C(=O)NCc4ccco4)cc3[nH]2)cc1
687 s	CN(C)CCNc1nnc(-c2nc(-c3ccc(F)cc3)no2)c2ccccc12
904 s	Cc1cccc(OCC(=O)N2CCN(S(=O)(=O)c3c(C)nn(C(C)C)c3C)CC2)c1
549 s	O=S(=O)(c1ccc(Br)cc1)N1CCNCC1
563 s	CCN(CC)S(=O)(=O)c1c[nH]c(=O)[nH]c1=O
863 s	COCCCNC(=O)C1CCCN(c2ncc(-c3cccc(F)c3)cn2)C1 (stereo not given)
624 s	O=C(COc1ncccn1)NC1CCCCC1
902 s	CCCc1noc(-c2ccc(=O)n(CC(=O)Nc3cc(C)cc(C)c3)c2)n1
822 s	Cc1ccccc1-c1nnc(CSc2nnc(NC(=O)C3CC3)s2)o1

RP-LC retention time	SMILES
905 s	O=C(N1CCc2ccccc2C1)C1(c2ccc(F)cc2)CC1
981 s	CCc1ccc(OCC(=O)Nc2cnn(CC)c(=O)c2N2CCOCC2)cc1
658 s	O=C(Cn1cnc2nc(N3CCOCC3)ncc2c1=O)Nc1ccc2c(c1)OCCO2
868 s	CC1=C(c2ccccc2)S(=O)(=O)N=C1N1CCCN(C(=O)C2CCCCC2)CC1
938 s	CC(=O)COc1cc(O)c2c(=O)cc(-c3ccccc3)oc2c1
717 s	CS(=O)(=O)N[C@H]1C[C@@H]2C[C@H]1N(C(=O)Cc1c(F)cccc1Cl)C2
1050 s	COc1ccc(C)cc1NC(=O)c1cc(C)n2nccc2n1
674 s	O=C(NCCCN1CCCC1)C1CCCN(c2ncc(-c3ccc(F)cc3)cn2)C1 (stereo not given)
778 s	CNC(=O)C1CN(S(=O)(=O)c2cccc(F)c2)CC12CCCC2 (stereo not given)
743 s	COCCSc1nnc(NC(=O)C2CCN(C(=O)c3ccccc3Cl)CC2)s1
834 s	COc1ccc(N2C(=O)C3N=NN(Cc4nc(-c5ccc6c(c5)OCO6)no4)C3C2=O)cc1OC (stereo not given)
779 s	O=C(NC1CC1)C1(c2ccc(F)cc2)CC1
1070 s	COc1cc(OC)cc(-c2nnc(-c3ccccc3Cl)o2)c1
629 s	COc1ccc(CC(=O)NCc2c(C)nc3sc(C)nn23)cc1Cl
962 s	COc1ccc(OC)c(NC(=O)CN2C(=O)CCc3cc(Br)ccc32)c1
776 s	CCOC(=O)N1CCc2c(sc(NC(=O)c3cn(C)nc3OC)c2C#N)C1
1050 s	O=C(CSc1cc(N2CCCCC2)ncn1)Nc1cccc(Br)c1
1180 s	C#C[C@]1(O)CC[C@H]2[C@@H]3CCC4=Cc5oncc5CC4(C)[C@H]3CCC21C (stereo not given in full)
700 s	O=C(NCc1ccc(F)cc1F)C1CCCN(c2ncnc3nn(-c4ccc(F)cc4)cc23)C1 (stereo not given)
774 s	CC(C)c1ccc(Nc2nc3ccncc3n(C(C)C)c2=O)cc1
682 s	O=C(CCc1c[nH]c2ccccc12)Nc1cccc(-c2nnc3n2CCCC3)c1
1030 s	CCc1nc(-c2ccc3c(c2)CCN3C(=O)Cc2cccc(F)c2)no1
1030 s	CCN1C(=O)c2cc(S(=O)(=O)Nc3cc(C)ccc3F)ccc2Oc2cccnc21

RP-LC retention time	SMILES
740 s	Cc1c(C(=O)N2CCSCC2)cnn1-c1ncccc1-c1nc(C2CC2)no1
548 s	O=C(Nc1ccccc1)N1CC(c2nc3ccccc3[nH]2)C1
790 s	COc1cc(-c2cccc(Cl)c2)nc2ccc(NC(=O)c3ccco3)cc12
697 s	CCn1c(-c2ccccc2)cc(C(=O)N(C)C)c1C
1260 s	COc1ccccc1N1CCN(c2cc(SCC(=O)Nc3ccc(Cl)cc3F)ncn2)CC1
866 s	COC(=O)c1cc2nc(-c3ccc(F)cc3)cc(C)n2n1
785 s	CC(=O)Nc1cc2c(cc1Sc1ccc(C)cc1)n(C)c(=O)n2C
705 s	Cc1ccc(NC(=O)C2CCN(S(=O)(=O)c3cc(C(=O)N4CCC(C)CC4)n(C)c3)CC2)nc1
935 s	CCOC(=O)C1CCN(c2c(C#N)cnc3ccc(Cl)cc23)CC1
702 s	CC(C)(C)c1ccc(-c2nc3ccccc3[nH]2)cc1
763 s	Cn1c(=O)c2c(ncn2CC(=O)N2CCCn3nc(-c4ccc(C(F)(F)F)cc4)cc3C2)n(C)c1=O
823 s	CC(C)CC(=O)Nc1cnc(N2CCCCCC2)nc1
768 s	CCCCN(C)C(=O)C1CCC(=O)N(c2cc(OC)c(OC)c(OC)c2)C1c1ccc(OC)cc1 (stereo not given)
864 s	O=C(NC1CCN(c2cc(-c3ccc(F)cc3)[nH]n2)C1)c1ccc(Br)cc1 (stereo not given)
881 s	CC(C(=O)NCCCN(C)c1ccccc1)n1c(=O)c(C(F)(F)F)nc2ccccc21 (stereo not given)
760 s	Cc1cc(C)cc(NC2C=CS(=O)(=O)C2)c1 (stereo not given)
713 s	Cn1nc(C(=O)N2CCOCC2)c2c1CCN(C(=O)Nc1ccc(Br)cc1F)C2
706 s	O=C(NCCCc1ccccc1)c1ccc2c(c1)N(CC(=O)N1CCCC1)C(=O)CO2
732 s	COc1ccc(NC(=O)c2cnc3c(c2)c(=O)n(C)c(=O)n3C)cc1
1010 s	COc1ccc(C2CC(=O)N(c3ccc(C)c(Cl)c3)C(=O)C2)cc1
919 s	O=C(NCc1cc(F)ccc1F)C1CN(S(=O)(=O)c2cccnc2)CC12CCCCC2 (stereo not given)
